{
  "source": "patent US12605382B2",
  "about": "“Pharmaceutical composition for preventing, alleviating, or treating cancer containing 2,6-dichloro-4-(4-(4-hydroxycyclohexylamino)-7H- pyrrolo[2,3-d]pyrimidin-5-yl)phenol as active ingredient” (JBKLAB CO., LTD., priority 2021, dated 2026)",
  "key": {"[1]": {"test_system": "BT20", "experiment": "Cell viability assay (WST-8), breast cancer cell line", "assay_type": "cell-based, human", "conditions": "dose dependently", "experimental": "An experiment was performed to confirm the growth inhibitory effect of the compound of Example 1, the active ingredient of the pharmaceutical composition of the present invention, on breast cancer cell lines through cell viability assay.\nSpecifically, the cell viability assay was performed as follows. BT20, a human-derived breast cancer cell line, and MDA-MB-231, a TNBC cell line, were each seeded in 96-well plates at the density of 5×10^3 cells/well and cultured for 24 hours. Then, I-bet 762 and the compound of Example 1 were treated thereto at different concentrations and cultured for 48 hours. At the end of the culture, 100 μl of WST-8 solution was added to each well of the plate, and the absorbance was measured with a microplate reader using a 450 nm optical filter to measure the formazan produced by the reducing factors in living cells.\nFIGS. 4A-4C show the cell viability of MDA-MB-231, MDA-MB-453, and BT-20 after 24 hours of treatment with the compound of Example 1. As shown in FIGS. 4A-4C, it was confirmed that the cell viability was suppressed not only in general breast cancer cell lines, but also in TNBC cell lines dose dependently."}, "[2]": {"test_system": "tumor tissues (MDA-MB-231)", "experiment": "H&E staining of tumor tissue, cell necrosis areas", "assay_type": "in vivo, BALB/c-nude mice", "conditions": "T4, T5 and T6 groups", "experimental": "An experiment was performed to confirm the tumor necrosis effect of the compound of Example 1, the active ingredient of the pharmaceutical composition of the present invention, by measuring the number of apoptotic bodies in tumors and H&E staining of the tumor tissues in BALB/c-nude mice injected with cancer cell lines.\nThen, the sections were stained with hematoxylin and eosin, and cell necrosis areas were observed."}, "[3]": {"test_system": "CD8+ T cells", "experiment": "Flow cytometric analysis (FACS) of tumor tissue, 4T1 allograft model", "assay_type": "in vivo, BALB/c mice", "conditions": "31 days", "experimental": "(§1) The tumor tissues from each mouse were subjected to single cell isolation, followed by flow cytometric analysis (FACS) to confirm the immunomodulatory effect.\n(§2) Specifically, the spleen and tumor of the mouse were extracted 31 days after tumor cell injection in the same manner as in Example 8. After the tumor tissue was excised, it was mechanically processed by fine chopping using a sterilized razor blade, and then treated with DNase (0.1 mg/ml) and collagenase (1 mg/ml), respectively, and reacted at 36° C. for 30 minutes to obtain a single cell suspension. To analyze infiltrating leukocytes after isolation of single cells from the tumor tissue, […] cells per FACS tube were stained with FITC, PE, PerCP/Cy5.5, and APC fluorescence using CD3 antibody, CD8b antibody, CD4 antibody, CD11b antibody, F4/80 antibody, and CD206 antibody. For each stained sample, the fraction of CD8+ cytotoxic T cells was calculated using BD Bioscience FACSCalibur machines. Analysis of the FACS results was performed using FlowJo software, version 10."}, "[4]": {"test_system": "M1 TAM", "experiment": "Flow cytometric analysis (FACS) of tumor tissue, 4T1 allograft model", "assay_type": "in vivo, BALB/c mice", "experimental": "as §1, §2"}},
  "data": [
    {"smiles": "Oc1c(Cl)cc(-c2c[nH]c3ncnc(N[C@H]4CC[C@H](O)CC4)c23)cc1Cl", "note": "[Example 1, (trans)-2,6-dichloro-4-(4-(4-hydroxycyclohexylamino)-7H-pyrrolo[2,3-d]pyrimidin-5-yl)phenol]", "values": [
      {"measurement": "cell viability", "setting": "[1]; BT20, 48 hours", "value": "inhibited the cell viability"},
      {"measurement": "cell viability", "setting": "[1]; BT-20, 24 hours", "value": "suppressed"},
      {"measurement": "areas of tissue necrosis compared to NC group (H&E)", "setting": "[2]", "value": "more areas of tissue necrosis"},
      {"measurement": "proportion of CD8+ T cells in tumor", "setting": "[3]; alone", "value": "increased"},
      {"measurement": "proportion of CD8+ T cells in tumor compared to each administration alone", "setting": "[3]; combined with radiation", "value": "significantly increased"},
      {"measurement": "M1 TAM", "setting": "[4]; alone", "value": "significantly (P<0.01) increased"},
      {"measurement": "M1 TAM", "setting": "[4]; combined with radiation", "value": "increase"}
    ]}
  ]
}
